{
  "source": "patent US5612319A",
  "about": "“Postexposure prevention of HIV infection or seroconversion” (Medivir AB, priority 1994, dated 1997)",
  "key": {"SIV [1]": {"test_system": "SIV", "conditions": "prophylactically, i.e. pre-exposure administered; cited from earlier work"}, "[2]": {"assay": "In vivo simian experiments, short term toxicity", "conditions": "30 mg/kg/day"}, "MT4 cells": {"test_system": "MT4 cells", "assay": "Cell culture tolerance in MT4 cells", "format": "cell-based, human", "conditions": "cell culture results"}, "[3]": {"assay": "Cell culture tolerance in MT4 cells", "format": "cell-based, human", "conditions": "human; cell culture, MT4 cells; read-out: ID50 in MT4 cells"}, "SIV [4]": {"test_system": "SIV", "assay": "Postexposure prevention of SIV infection in macaque monkeys (Example 2, Table 1)", "format": "in vivo", "conditions": "for Detected during 30 days post virus inoculation: SIV Ag / Detected during 30 days post virus inoculation: SIV-2 / SIV antibody detected during 30 days post inoculation: 10 mg/kg s.c. three times per day", "experimental": "Inoculation: The control and test animals, 2 year old macaque monkeys were inoculated […] with either a moderate (10 monkey infectious doses MID50, as determined by Bottiger et al Antiviral Chemistry and Chemotherapy 1992;3:269-271) or a high (100 MID50) dose preparation of SIV in phosphate buffer, as listed in Table 1 below.\nOne or three hours after i.v. inoculation with SIV, paired test animals were injected subcutaneously with 10 mg/kg of the preparation of Example 1, repeated three times per day for 1 day or 3 days as listed in table 1. Blood samples were extracted from the test and control animals on days 0, 17, 23 and 30 for determination of SIV antibody, SIV p26 antigen and presence of infective virus. The methods have been described by Bottiger et al, AIDS Res Hum Retroviruses 1992;7:1235-1238."}, "HIV-1, HIV-2 or SIV": {"test_system": "HIV-1, HIV-2 or SIV", "conditions": "until shortly after \"treatment\" is concluded; cited from earlier work"}, "[5]": {"test_system": "lentivirus infections with HIV or SIV", "conditions": "administered prophylactically, prior to exposure to HIV or SIV; cited from earlier work"}, "HIV [6]": {"test_system": "HIV", "conditions": "HIV-infected individuals; cited from earlier work"}, "HIV [7]": {"test_system": "HIV", "conditions": "rapid and sustained postexposure administration of large doses; cited from earlier work"}, "SIV [8]": {"test_system": "SIV", "conditions": "administered from 8 hours prior to virus inoculation; cited from earlier work"}, "[9]": {"conditions": "10 MID50, treatment start 1 hour post inoculation, duration 1 day, monkeys 45, 46"}, "[10]": {"conditions": "10 MID50, treatment start 1 hour post inoculation, duration 3 days, monkeys 48, 49"}, "[11]": {"conditions": "10 MID50, treatment start 3 hours post inoculation, duration 3 days, monkeys 54, 57"}, "[12]": {"conditions": "100 MID50, treatment start 1 hour post inoculation, duration 3 days, monkeys 53, 58"}},
  "data": [
    {"smiles": "O=C(O)P(=O)(O)O", "note": "[PFA]", "values": [
      {"measurement": "prevention of infection with SIV", "setting": "SIV [1]", "value": "inability to prevent infection with SIV"}
    ]},
    {"smiles": "Cc1cn([C@H]2C=C[C@@H](CO)O2)c(=O)[nH]c1=O", "note": "[d4T]", "values": [
      {"measurement": "prevention of infection with SIV", "setting": "SIV [1]", "value": "inability to prevent infection with SIV"}
    ]},
    {"smiles": "Nc1ccn([C@H]2C[C@H](CO)[C@@H](CO)O2)c(=O)n1", "note": "[Example 1, 1-[2',3'-dideoxy-3'-C-(hydroxymethyl)-β-D-erythro-pentofuranosyl]-cytosine]", "values": [
      {"measurement": "toxicity short term in simian experiments", "setting": "[2]", "value": "no detectable toxicity"},
      {"measurement": "tolerance by human cells", "setting": "MT4 cells", "value": "generally well tolerated"},
      {"measurement": "CC50", "setting": "[3]", "value": "~45", "unit": "µg/mL"},
      {"measurement": "Detected during 30 days post virus inoculation: SIV Ag", "setting": "SIV [4]; [9]", "value": "-"},
      {"measurement": "Detected during 30 days post virus inoculation: SIV-2", "setting": "SIV [4]; [9]", "value": "-"},
      {"measurement": "SIV antibody detected during 30 days post inoculation", "setting": "SIV [4]; [9]", "value": "-"},
      {"measurement": "Detected during 30 days post virus inoculation: SIV Ag", "setting": "SIV [4]; [10]", "value": "-"},
      {"measurement": "Detected during 30 days post virus inoculation: SIV-2", "setting": "SIV [4]; [10]", "value": "-"},
      {"measurement": "SIV antibody detected during 30 days post inoculation", "setting": "SIV [4]; [10]", "value": "-"},
      {"measurement": "Detected during 30 days post virus inoculation: SIV Ag", "setting": "SIV [4]; [11]", "value": "-"},
      {"measurement": "Detected during 30 days post virus inoculation: SIV-2", "setting": "SIV [4]; [11]", "value": "-"},
      {"measurement": "SIV antibody detected during 30 days post inoculation", "setting": "SIV [4]; [11]", "value": "-"},
      {"measurement": "Detected during 30 days post virus inoculation: SIV Ag", "setting": "SIV [4]; [12]", "value": "-"},
      {"measurement": "Detected during 30 days post virus inoculation: SIV-2", "setting": "SIV [4]; [12]", "value": "-"},
      {"measurement": "SIV antibody detected during 30 days post inoculation", "setting": "SIV [4]; [12]", "value": "-"},
      {"measurement": "protection from 100 infectious doses of SIV", "setting": "SIV [4]; 3 days treatment, 100 infectious doses, animals 53 and 58", "value": "protected the test animals from the very high dose of 100 infectious doses of SIV"},
      {"measurement": "prevention of infection establishing itself in the test animals", "setting": "SIV [4]; all test animals, viral antigen, antibody or virus culture in blood", "value": "prevented the infection establishing itself in the test animals"},
      {"measurement": "SIV antibody or SIV antigen in test animals", "setting": "SIV [4]; each test animal, 30 day period monitored", "value": "free from detectable SIV antibody or SIV antigen"},
      {"measurement": "infectious virus cultivated from blood samples", "setting": "SIV [4]; each test animal, day 30", "value": "infectious virus could not be cultivated"},
      {"measurement": "protection from 10 infectious doses of SIV", "setting": "SIV [4]; single day of treatment, 10 infectious doses", "value": "protected the test animals from 10 infectious doses of SIV"}
    ]},
    {"smiles": "Nc1ccn([C@H]2CC[C@@H](CO)O2)c(=O)n1", "note": "[ddC]", "values": [
      {"measurement": "prevention of infection with SIV", "setting": "SIV [1]", "value": "inability to prevent infection with SIV"}
    ]},
    {"smiles": "Cc1cn([C@H]2C[C@H](N=[N+]=[N-])[C@@H](CO)O2)c(=O)[nH]c1=O", "note": "[AZT, zidovudine]", "values": [
      {"measurement": "delay of seroconversion", "setting": "HIV-1, HIV-2 or SIV", "value": "at most appear to delay seroconversion"},
      {"measurement": "prevention of infection with SIV", "setting": "SIV [1]", "value": "inability to prevent infection with SIV"},
      {"measurement": "effect on pattern of lentivirus infections", "setting": "[5]", "value": "may alter the pattern of lentivirus infections"},
      {"measurement": "suppression of AIDS development or reducing viral loads", "setting": "HIV [6]", "value": "clinically significant action"},
      {"measurement": "published accounts of seroconversion after accidental exposure to HIV", "setting": "HIV [7]", "value": 13, "unit": "published accounts"}
    ]},
    {"smiles": "Cc1cn([C@H]2C[C@H](F)[C@@H](CO)O2)c(=O)[nH]c1=O", "note": "[FLT, 3'-fluorothymidine]", "values": [
      {"measurement": "protection against SIV", "setting": "SIV [8]", "value": "may provide some protection against SIV"}
    ]}
  ]
}
